Consider three molecules from ChEMBL document CHEMBL4184337, “Discovery of Orally Bioavailable, Quinoline-Based Aldehyde Dehydrogenase 1A1 (ALDH1A1) Inhibitors with Potent Cellular Activity” (J Med Chem, 2018).

Bounds are passed on as bounds.

The nature of data set [1]: Solubility of compound. Format: physicochemical.
A short description of data set [2]: Apparent permeability across apical to basolateral side in human Caco2 cells. The format is ADME, cell-based. Particulars: caco-2.
The subject of data set [3] is Mus musculus. The data set can be described thus: Cmax in CD1 mouse at 10 mg/kg, po measured at 5 mins by LC-MS/MS method. The format is ADME, organism-based. Details: dose 10 mg/kg, route oral. Particulars: in vivo.
Data set [4] concerns Rattus norvegicus. The data set can be described thus: Cmax in Sprague-Dawley rat at 10 mg/kg, po measured at 5 mins by LC-MS/MS method. Format: ADME, organism-based. Further details: dose 10 mg/kg, route oral. Conditions: in vivo.
Data set [5] is described as follows: Permeability of the compound by PAMPA. Format: ADME. A general note: PAMPA measures passive passage across an artificial lipid membrane.
A short description of data set [6]: AUC (0 to infinity) in Sprague-Dawley rat at 10 mg/kg, po by LC-MS/MS method. The format is ADME, organism-based. Further details: dose 10 mg/kg, route oral, time infinity. Particulars: in vivo.
For data set [7], the system named is Mus musculus. The data set can be described thus: Cmax in CD1 mouse at 2 mg/kg, iv measured at 5 mins by LC-MS/MS method. The format is ADME, organism-based. Details: dose 2 mg/kg, route intravenous. Conditions: in vivo.
Data set [8] concerns Mus musculus. The data set can be described thus: Oral bioavailability in CD1 mouse at 10 mg/kg by LC-MS/MS method. The format is ADME, organism-based. Conditions: in vivo.
For data set [9], the system named is Rattus norvegicus. The data set can be described thus: Oral bioavailability in Sprague-Dawley rat at 10 mg/kg by LC-MS/MS method. Conditions: in vivo. Format: ADME, organism-based.
A short description of data set [10]: Apparent permeability across basolateral to apical side in human Caco2 cells. Format: ADME, cell-based. Conditions: caco-2. For orientation: Caco-2 monolayers are a common model of the intestinal barrier.
A short description of data set [11]: AUC (0 to infinity) in Sprague-Dawley rat at 2 mg/kg, iv by LC-MS/MS method. Format: ADME, organism-based. Details: dose 2 mg/kg, time infinity, route intravenous. Conditions: in vivo.
Data set [12] has as its system Rattus norvegicus. The data set can be described thus: Cmax in Sprague-Dawley rat at 2 mg/kg, iv measured at 5 mins by LC-MS/MS method. The format is ADME, organism-based. Further details: dose 2 mg/kg, route intravenous. Particulars: in vivo.
Data set [13] can be described thus: Volume of distribution at steady state in Sprague-Dawley rat at 2 mg/kg, iv by LC-MS/MS method. Format: ADME, organism-based. Conditions: in vivo, read-out: Vdss.

In the case of `COc1ccc(S(=O)(=O)c2cnc3ccc(OC)cc3c2N2CCC3(CC2)OCCO3)cc1`, the solubility – broadly, how much of the substance goes into solution per volume – in data set [1] is less than 1 µg/mL.
For the molecule `CS(=O)(=O)N1CCN(C(=O)c2cnc3ccc(F)cc3c2-c2ccc(C3(C#N)CC3)cc2)CC1`, the Papp (usually the rate of passage across a membrane or cell layer, normalised by area and donor concentration) in data set [2] is 5.76 ×10⁻⁶ cm/s; in data set [10], 22.4 ×10⁻⁶ cm/s. In addition, the Cmax – broadly, the peak of the concentration-time curve – turned out to be 1530 ng/mL in data set [3], 1980 ng/mL in data set [4], 1997 ng/mL in data set [7] and 2587 ng/mL in data set [12]. The permeability in [5] worked out at 388 ×10⁻⁶ cm/s. In addition, the AUC(0-inf) (usually total exposure, with the tail of the curve extrapolated) amounted to 7540 ng·h/mL in [6] and 3160 ng·h/mL in data set [11]. The figures for the F in [8] and in data set [9] were 76% and 48%, respectively. Besides, the Vd in data set [13] was determined as 0.7 L/kg.
Turning to `CS(=O)(=O)N1CCN(C(=O)c2cnc3ccc(F)cc3c2N2CCC(C#N)(c3ccccc3)CC2)CC1`, the Papp is 11.4 ×10⁻⁶ cm/s in data set [2] and 17.2 ×10⁻⁶ cm/s in data set [10]. Further, the Cmax in data set [3] is 1234 ng/mL; in data set [7], 2350 ng/mL. In data set [5], the permeability stood at 725 ×10⁻⁶ cm/s. In [8], the F turned out to be 44%.
